The source of these data is PubChem BioAssay (NCI).

Where “and” joins values, the source holds several entries; their conditions need not be identical. Equal entries are not always repeated.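 Values below derive from 48-hour exposures of cells grown in 96-well plates, with endpoints linearly interpolated between the two concentrations bracketing the appropriate inhibition level. GI50: concentration for 50% inhibition of growth. TGI marks complete inhibition of growth.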 Where only a bound is given, the exact number is not on record here.

Test systems include 786-0 renal; A498 renal; A549 NSCLC; CCRF-CEM leukemia; DU-145 prostate; HCT-116 colon; NCI-H23 lung; NCI-H522 lung; SNB-19 CNS; U251 CNS; OVCAR-4 ovarian.
What all share (experiment): DTP human tumour cell line panel, 48 h

Turning to `COC(=O)Cc1c(C2=Nc3ccccc3C2(O)CC(=O)OC)[nH]c2ccccc12` (stereo not given), the TGI in the experiment with 786-0 renal is more than 100 µM; in the experiment on A498 renal, more than 100 µM; in the experiment on A549 NSCLC, more than 100 µM; in the experiment on CCRF-CEM leukemia, 54.5 µM; in the experiment on DU-145 prostate, more than 100 µM; in the experiment with HCT-116 colon, more than 100 µM. Also, the TGI in the experiment on NCI-H23 lung, in the experiment on NCI-H522 lung, in the experiment with SNB-19 CNS and in the experiment on U251 CNS was more than 100 µM in each case.

On to `c1ccc2c(c1)CC1c3[nH]c4ccccc4c3CCN21` (stereo not given), for which the TGI with 786-0 renal, in the experiment on A549 NSCLC, in the experiment with CCRF-CEM leukemia, with DU-145 prostate, in the experiment with HCT-116 colon and with NCI-H23 lung was more than 10 µM throughout. Besides, the concentration for total growth inhibition (TGI) in the experiment with NCI-H522 lung, in the experiment with OVCAR-4 ovarian, with SNB-19 CNS and with U251 CNS was more than 10 µM throughout.

As for `COc1cc(C(=O)Nc2nnc(S(N)(=O)=O)s2)cc(OC)c1OC`, the concentration for total growth inhibition (TGI) with 786-0 renal, in the experiment with A549 NSCLC, with DU-145 prostate, with HCT-116 colon, in the experiment with NCI-H23 lung and in the experiment on NCI-H522 lung was more than 100 µM throughout. Also, the total growth inhibition concentration (TGI) in the experiment with OVCAR-4 ovarian, with SNB-19 CNS and with U251 CNS was more than 100 µM throughout.

Take `O=C1CCC2(CC1)Cc1ccccc1C2O` (stereo not given): the total growth inhibition concentration (TGI) in the experiment with 786-0 renal, with A549 NSCLC, in the experiment with CCRF-CEM leukemia, with DU-145 prostate, in the experiment on HCT-116 colon and in the experiment on NCI-H23 lung was more than 100 µM each time. Further, the TGI in the experiment with NCI-H522 lung, in the experiment on OVCAR-4 ovarian, with SNB-19 CNS and in the experiment with U251 CNS was more than 100 µM in each case.

With `CCCCCCCCCCCCCCCCOCC(CC(F)(F)P(=O)(O)O)OC(C)=O` (stereo not given), the TGI in the experiment on 786-0 renal, in the experiment on A498 renal, in the experiment with A549 NSCLC, in the experiment with DU-145 prostate, with HCT-116 colon and in the experiment on NCI-H23 lung was more than 50 µM in each case. Also, the concentration for total growth inhibition (TGI) in the experiment with NCI-H522 lung, in the experiment on SNB-19 CNS and with U251 CNS was more than 50 µM in each case.

`C/C(=N\N=C(N)N)c1c(C(=O)OCCCCCCOC(=O)c2nc3sccn3c2/C(C)=N/N=C(N)N)nc2sccn12`: the total growth inhibition concentration (TGI) in the experiment with 786-0 renal is more than 100 µM; with A498 renal, more than 100 µM; in the experiment on A549 NSCLC, more than 100 µM; in the experiment on CCRF-CEM leukemia, 63.2 µM; with HCT-116 colon, more than 100 µM; with NCI-H23 lung it was more than 100 µM. In addition, the TGI in the experiment with NCI-H522 lung, in the experiment on OVCAR-4 ovarian, in the experiment with SNB-19 CNS and in the experiment on U251 CNS was more than 100 µM throughout.

With `C#CC(C)(C)Oc1cc(OC)c2c(=O)c3ccccc3n(C)c2c1`, the TGI in the experiment with 786-0 renal is more than 100 µM; in the experiment on A549 NSCLC it was 74.1 µM; with CCRF-CEM leukemia, 27.5 µM; in the experiment on DU-145 prostate it was 55.8 µM; with HCT-116 colon it was more than 100 µM; in the experiment on OVCAR-4 ovarian it was 41.8 µM. In addition, the TGI with SNB-19 CNS is 93.8 µM; in the experiment with U251 CNS, more than 100 µM.

For the molecule `O=C(Cc1nc2ccc(C(=O)c3ccccc3)cc2[nH]c1=O)C(=O)Nc1ccccc1[N+](=O)[O-]`, the TGI in the experiment with 786-0 renal, with A498 renal, in the experiment on A549 NSCLC, with CCRF-CEM leukemia, in the experiment on HCT-116 colon and in the experiment on NCI-H23 lung was more than 100 µM in each case. For the same molecule, the total growth inhibition concentration (TGI) with NCI-H522 lung, with OVCAR-4 ovarian and with U251 CNS was more than 100 µM each time.

For `CC1=NN(c2nc(N)nc(/C(C#N)=C/c3ccncc3)n2)C(C)(C)C1`, the total growth inhibition concentration (TGI) with 786-0 renal, with A498 renal, with CCRF-CEM leukemia, in the experiment with DU-145 prostate, in the experiment with HCT-116 colon and in the experiment with NCI-H23 lung was more than 100 µM in each case. In addition, the concentration for total growth inhibition (TGI) with OVCAR-4 ovarian, in the experiment on SNB-19 CNS and in the experiment with U251 CNS was more than 100 µM in each case.

Take `COc1cc2c3c(n(CCCNCCO)c(=O)c2cc1OC)-c1cc2c(cc1C3=O)OCO2`: the TGI in the experiment with 786-0 renal was 0.118 µM and 0.0216 µM; with A498 renal, 1.87 µM and 1.49 µM; with HCT-116 colon, 1.05 µM and 0.686 µM; in the experiment with NCI-H23 lung it was 0.171 µM and 0.493 µM; in the experiment on NCI-H522 lung, 0.966 µM and 3.8 µM; with SNB-19 CNS, more than 100 µM. Also, in the experiment with U251 CNS, the TGI was 1.09 µM and 1.62 µM. The GI50 in the experiment with A498 renal is 0.033 µM; with DU-145 prostate it was 0.0299 µM; in the experiment on HCT-116 colon, 0.0662 µM and 0.0639 µM; in the experiment on NCI-H23 lung it was 0.0437 µM; in the experiment with NCI-H522 lung, 0.0144 µM; in the experiment with U251 CNS, 0.0191 µM and < 0.0383 µM.

In the case of `Oc1ccc(-c2c3c(nc4c2CCc2ccc(Br)cc2-4)-c2cc(Br)ccc2CC3)cc1`, the TGI came to 37.4 µM with 786-0 renal; 48.6 µM in the experiment on A498 renal; 40.8 µM in the experiment on A549 NSCLC; 59.5 µM in the experiment on DU-145 prostate; 53.7 µM in the experiment with HCT-116 colon; 38.7 µM with NCI-H23 lung. For the same molecule, the concentration for total growth inhibition (TGI) in the experiment on NCI-H522 lung is 42.7 µM; in the experiment on OVCAR-4 ovarian, 48 µM; in the experiment with SNB-19 CNS, 46.9 µM; in the experiment on U251 CNS, 34.2 µM.

Consider `CCCCCCCCCCCCC(=O)NCC(=O)NC(Cc1ccccc1)C(=O)Oc1ccc([N+](=O)[O-])cc1` (stereo not given), for which the TGI was more than 100 µM in the experiment on 786-0 renal; more than 100 µM in the experiment on A498 renal; more than 100 µM in the experiment on A549 NSCLC; 68.7 µM in the experiment on CCRF-CEM leukemia; more than 100 µM in the experiment with DU-145 prostate; more than 100 µM with HCT-116 colon. The figures for the TGI with NCI-H23 lung, in the experiment on NCI-H522 lung and in the experiment on SNB-19 CNS were more than 100 µM, 81 µM and more than 100 µM, respectively.

`CN(C)c1ccc(-c2nc(-c3cc4c(ccc5ccccc54)oc3=O)cs2)cc1`: the TGI with 786-0 renal, in the experiment on A549 NSCLC, in the experiment with CCRF-CEM leukemia, in the experiment on DU-145 prostate, with HCT-116 colon and in the experiment with NCI-H522 lung was more than 100 µM in each case. Further, the TGI in the experiment on OVCAR-4 ovarian, in the experiment with SNB-19 CNS and in the experiment on U251 CNS was more than 100 µM throughout.

A word on the TGI: it is the concentration giving total growth inhibition. Read a low TGI as more potent growth arrest. The term GI50 denotes the concentration giving 50% growth inhibition.
